Read-outs that look alike come from different tables or passages of the source.
System: human Ewing's sarcoma SK-ES-1
Assay type: in vivo
Set-up: Tumor volume changes from baseline: Median (nMad): unit not given here
Method: This efficacy may be quantified, for example, as changes in tumor volume for each treated (T) and control (C) group, which are calculated for each animal and each day by subtracting the tumor volume on the day of first treatment (staging day) from the tumor volume on the specified observation day. This allows calculating the tumor growth inhibition: ΔT/ΔC=(median delta T/median delta C)×100. Individual tumor volume changes from baseline are thereafter analyzed by a non-parametric two-way ANOVA-TYPE (with factors: group and repeated days) followed by a post-hoc contrasts analysis, with Bonferroni-Holm adjustment for multiplicity, comparing all treated groups to the control group. […] A probability less than 5% (p<0.05) was considered as significant.
Based on the National Cancer Institute (NCl) standards, a ΔT/ΔC≦40% is the minimal level required to declare activity.
The tumor doubling time (in days; Td) was estimated from the plot of the log linear growth of the control group tumors in exponential growth (100 to 1000 mm^3 range) [T. H. Corbett et al., Cancer, 40: 2660-2680 (1977); F. M. Schabel et al., Cancer Drug Development, Part B, Methods in Cancer Research, 17: 3-51, New York, Academic Press Inc. (1979)].
This efficacy may also be quantified by the number of tumor regressions observed after therapy. Individual mice reporting a tumor volume ≦50% of the Day 0 measurement for two consecutive measurements over a seven day period were considered partial responders (PR). Individual mice lacking palpable tumors (<4×4 mm^2 for two consecutive measurements over a seven day period) were classified as complete responders (CR); a CR that persisted until study completion was considered a tumor-free survivor (TFS).
The efficacy of cabazitaxel in comparison with docetaxel on pediatric solid tumors was determined experimentally in the following manner:
The animals subjected to the experiment are subcutaneously grafted unilaterally with approximately 30 mg of a tumor fragment on day 0. The animals are implanted with a human tumor xenografted in immunocompromized mice. Several days post tumor implantation, mice are randomized according to their body weight to the different groups of treatments and controls. The animals are observed every day. The different animal groups are weighed daily during treatment until the maximum weight loss is reached and subsequent full weight recovery has occurred. The groups are then weighed once or twice a week until the end of the trial.
The tumors are measured 1 to 5 times a week, depending on the tumor doubling time, until the tumor reaches approximately 1,000 mm^3, or until the animal dies (if this occurs before the tumor reaches 1,000 mm^3). The animals are necropsied immediately after euthanasia or death.
The selected tumor model was a human Ewing's sarcoma SK-ES-1, xenografted in SCID mice [Fogh J. New York: Plenum Press, 1975].
Cabazitaxel and docetaxel were weighed for each treatment and dissolved in ethanol. Treatment solutions were prepared first by mixing 1 volume of ethanolic stock solution and 1 volume of polysorbate 80, then by adding 18 volumes of glucose 5% in water.
The Td in days was estimated from the plot of the log linear growth of the control group tumors in exponential growth (100 to 1,000 mm^3 range) and the number of tumor regressions observed after therapy.
The following end points have been used: • Toxicity was declared at dosages inducing ≧20% body weight loss or ≧10% drug death; • Relative tumor growth inhibition was determined on day 22 post tumor implantation when the median tumor size in the control group was 456 mm^3; • Antitumor efficacy was determined by calculating the ΔT/ΔC value in percent, according to the above-mentioned formula; • Tumor regressions (as explained above); • Statistical analysis performed (as explained above).

[1] = 3.5 mg/kg per injection (total 7.0) IV days 15; 19
[2] = 5.6 mg/kg per injection (total 11.2) IV days 15; 19
[3] = 5.6 mg/kg per injection (total 11.2) IV days 15; 19; listed as CABAZITAXEL
[4] = 9.0 mg/kg per injection (total 18) IV days 15; 19
[5] = 9.0 mg/kg per injection (total 18) IV days 15; 19; listed as CABAZITAXEL
[6] = 14.5 mg/kg per injection (total 29) IV days 15; 19
[7] = 14.5 mg/kg per injection (total 29) IV days 15; 19; listed as CABAZITAXEL

SMILES: CO[C@H]1C(=O)[C@]2(C)[C@@H](OC)C[C@H]3OC[C@@]3(OC(C)=O)[C@H]2[C@H](OC(=O)c2ccccc2)[C@]2(O)C[C@H](OC(=O)[C@H](O)[C@@H](NC(=O)OC(C)(C)C)c3ccccc3)C(C)=C1C2(C)C [Cabazitaxel, 4α-acetoxy-2α-benzoyloxy-5β,20-epoxy-1β-hydroxy-7β,10β-dimethoxy-9-oxo-11-taxen-13α-yl (2R,3S)-3-tert-butoxycarbonyl-amino-2-hydroxy-3-phenylpropionate]
- Average body weight change in % per mouse at nadir [1]: −4.4%
- Biological interpretation [1]: active
- Drug death [1]: 0/7
- Regressions Complete [1]: 0/7
- Regressions Partial [1]: 0/7
- Tumor free survivors at day 120 [1]: 0/7
- day of nadir [1]: 16 days
- ΔT/ΔC in % (day 22) [1]: 22%
- Biological interpretation (3.5 mg/kg per injection (total 7.0) IV days 15; 19; listed as CABAZITAXEL): Active
- Tumor volume changes from baseline: Median (nMad) (3.5 mg/kg, day 19): 32
- Tumor volume changes from baseline: Median (nMad) (3.5 mg/kg, day 22): 41
- Tumor volume changes from baseline: Median (nMad) (3.5 mg/kg, day 25): 180
- Tumor volume changes from baseline: Median (nMad) (3.5 mg/kg, day 28): 499
- Tumor volume changes from baseline: Median (nMad) (3.5 mg/kg; day 19): 32 (207.6)
- Tumor volume changes from baseline: Median (nMad) (3.5 mg/kg; day 22): 41 (108.2)
- Tumor volume changes from baseline: Median (nMad) (3.5 mg/kg; day 25): 180 (100.8)
- Tumor volume changes from baseline: Median (nMad) (3.5 mg/kg; day 28): 499 (324.7)
- Average body weight change in % per mouse at nadir [2]: −4.2%
- Biological interpretation [2]: highly active
- Drug death [2]: 0/7
- Regressions Complete [2]: 0/7
- Regressions Partial [2]: 7/7
- Tumor free survivors at day 120 [2]: 0/7
- day of nadir [2]: 16 days
- Biological interpretation [3]: Highly Active
- ΔT/ΔC in % (day 22) [3]: <0%
- PR (5.6 mg/kg per injection IV days 15; 19): 100%
- Tumor volume changes from baseline: Median (nMad) (5.6 mg/kg, day 19): −31
- Tumor volume changes from baseline: Median (nMad) (5.6 mg/kg, day 22): −126
- Tumor volume changes from baseline: Median (nMad) (5.6 mg/kg, day 25): −157
- Tumor volume changes from baseline: Median (nMad) (5.6 mg/kg, day 28): −157
- Tumor volume changes from baseline: Median (nMad) (5.6 mg/kg; day 19): −31 (87.5)
- Tumor volume changes from baseline: Median (nMad) (5.6 mg/kg; day 22): −126 (86)
- Tumor volume changes from baseline: Median (nMad) (5.6 mg/kg; day 25): −157 (81.5)
- Tumor volume changes from baseline: Median (nMad) (5.6 mg/kg; day 28): −157 (81.5)
- Tumor volume changes from baseline: Median (nMad) (5.6 mg/kg; day 32): −128 (112.7)
- Tumor volume changes from baseline: Median (nMad) (5.6 mg/kg; day 35): −157 (112.7)
- Average body weight change in % per mouse at nadir [4]: −6.3%
- Biological interpretation [4]: highly active
- Drug death [4]: 0/7
- Regressions Complete [4]: 0/7
- Regressions Partial [4]: 7/7
- Tumor free survivors at day 120 [4]: 0/7
- day of nadir [4]: 16 days
- Biological interpretation [5]: Highly Active
- ΔT/ΔC in % (day 22) [5]: <0%
- PR (9 mg/kg per injection IV days 15; 19): 100%
- Tumor volume changes from baseline: Median (nMad) (9 mg/kg, day 19): 25
- Tumor volume changes from baseline: Median (nMad) (9 mg/kg, day 22): −137
- Tumor volume changes from baseline: Median (nMad) (9 mg/kg, day 25): −227
- Tumor volume changes from baseline: Median (nMad) (9 mg/kg, day 28): −227
- Tumor volume changes from baseline: Median (nMad) (9 mg/kg; day 19): 25 (37.1)
- Tumor volume changes from baseline: Median (nMad) (9 mg/kg; day 22): −137 (60.8)
- Tumor volume changes from baseline: Median (nMad) (9 mg/kg; day 25): −227 (100.8)
- Tumor volume changes from baseline: Median (nMad) (9 mg/kg; day 28): −227 (100.8)
- Tumor volume changes from baseline: Median (nMad) (9 mg/kg; day 32): −231 (78.6)
- Tumor volume changes from baseline: Median (nMad) (9 mg/kg; day 35): −231 (78.6)
- Average body weight change in % per mouse at nadir [6]: −7.1%
- Biological interpretation [6]: highly active
- Drug death [6]: 0/7
- Regressions Complete [6]: 6/7
- Regressions Partial [6]: 7/7
- Tumor free survivors at day 120 [6]: 3/7
- day of nadir [6]: 20 days
- Biological interpretation [7]: Highly Active
- ΔT/ΔC in % (day 22) [7]: <0%
- Tumor volume changes from baseline: Median (nMad) (14.5 mg/kg, day 19): −108
- Tumor volume changes from baseline: Median (nMad) (14.5 mg/kg, day 22): −203
- Tumor volume changes from baseline: Median (nMad) (14.5 mg/kg, day 25): −221
- Tumor volume changes from baseline: Median (nMad) (14.5 mg/kg, day 28): −221
- Tumor volume changes from baseline: Median (nMad) (14.5 mg/kg; day 19): −108 (91.9)
- Tumor volume changes from baseline: Median (nMad) (14.5 mg/kg; day 22): −203 (87.5)
- Tumor volume changes from baseline: Median (nMad) (14.5 mg/kg; day 25): −221 (81.5)
- Tumor volume changes from baseline: Median (nMad) (14.5 mg/kg; day 28): −221 (81.5)
- Tumor volume changes from baseline: Median (nMad) (14.5 mg/kg; day 32): −221 (87.5)
- Tumor volume changes from baseline: Median (nMad) (14.5 mg/kg; day 35): −221 (87.5)
- Tumor volume changes from baseline: Median (nMad) (14.5 mg/kg; day 39): −221 (108.2)
- Tumor volume changes from baseline: Median (nMad) (14.5 mg/kg; day 41): −221 (140.8)
- Tumor volume changes from baseline: Median (nMad) (14.5 mg/kg; day 43): −221 (140.8)
- Tumor volume changes from baseline: Median (nMad) (14.5 mg/kg; day 45): −144 (222.4)
- antitumor activity compared with docetaxel (conclusion of example 3): more also active than docetaxel

Reference: patent publication US20140350273A1, “PEDIATRIC USES OF CABAZITAXEL” (AVENTIS PHARMA S.A., priority 2012, published 2014)
